Measured values as given in patent publication US6326177A, “Method and apparatus for intracellular electro-manipulation” (Eastern Virginia Medical School of the Medical College of …, priority 2000, dated 2001).
Entries after “also recorded” stand apart in the source; their conditions may differ.

Assays:
[1] = test system: eosinophils; assay: Free calcein staining of eosinophil granules after Triton X-100 treatment (fluorescence and Wright-Giemsa microscopy); type: cell-based, human; settings: 5 minutes
Protocol: BOTTOM ROW: Wright-Giemsa stained (above) and fluorescent (below) images of eosinophils treated with 1 μM free calcein+0.005% Triton X-100 for 5 minutes (left), eosinophils treated with 0.01% Triton X-100+1 μM free calcein (5 minutes) (center) and eosinophils incubated in 0.05% Triton X-100+1 μM free calcein for 5 minutes.
Free calcein is a highly fluorescent modified fluorescein with 6 negative and 2 positive charges that is membrane impermeant. In its methyl ester form, calcein-AM, it is non-fluorescent and membrane permeable. When used as a fluorescent stain for cells, calcein-AM passes through the surface membrane and is cleaved to free calcein+the methyl ester residue by intracellular esterase activities. This modification traps the free calcein in the cytoplasm of the cell, and retention of the free calcein is a common criterion for intactness of the surface membrane.

[2] = test system: PMN; assay: Triton X-100 effect on PMN in the free calcein staining experiment; type: cell-based, human; settings: 5 minutes
Protocol: Aliquots of an eosinophil-enriched leukocyte preparation (65% eosinophils) were exposed to 1 μM free calcein in HBSSw/o plus increasing amounts (0%-0.05%) Triton X-100 (5 minutes, 25° C.) and examined microscopically. […] Red eosinophil autofluorescence was readily visible and was also visible in all conditions up to and including the free calcein +0.01% Triton exposure. […] After Wright-Giemsa staining, these were recognized to be the residual nuclei of fully detergent-solubilized cells (pale green fluorescence) with associated eosinophilic granules corresponding exactly to the punctate areas of bright fluorescence (see FIG. 26).
Calcein-AM stained eosinophils trap free calcein in their cytoplasm after staining (left), and the intracellular free calcein is excluded from the eosinophil's large granules as shown on the left.

[3] = 0.001% Triton X-100 + 1 μM free calcein
[4] = 0.005% Triton X-100 + 1 μM free calcein

Molecule	calcein staining of eosinophils exposed to free calcein without Triton ([1]; 1 μM free calcein in HBSSw/o, 0% Triton, 25° C.)	free calcein staining / detergent effect on PMN [2, 3]	free calcein staining / detergent effect on PMN [2, 4]	free calcein staining / detergent effect on eosinophils [1, 3]	free calcein staining / detergent effect on eosinophils [1, 4]	free calcein staining / detergent effect on eosinophils ([1]; 0.01% Triton X-100 + 1 μM free calcein)	free calcein staining / detergent effect on eosinophils ([1]; 0.05% Triton X-100 + 1 μM free calcein)
O=C(O)CN(CC(=O)O)Cc1cc2c(cc1O)Oc1cc(O)c(CN(CC(=O)O)CC(=O)O)cc1C21OC(=O)c2ccccc21 [free calcein]	no calcein staining; also recorded: incapable of staining eosinophil cytoplasm	–	–	–	–	–	–
Triton X-100	–	stains the fine granules of a PMN showing obvious detergent effects	detergent solubilized PMN show very fine, fluorescent "calcein sand" staining patterns	free calcein continues to be excluded from eosinophils	the morphology of some eosinophils suggests partial detergent solubilization which is accompanied by bright free calcein staining of eosinophil granules	occasional eosinophils showed an isolated bright green granule within the eosinophil autofluorescence pattern; also recorded: all eosinophils show nuclear changes suggestive of detergent effect, and many contain 1-2 bright granules on a background of red autofluorescence	many discrete areas of pale green fluorescence with overlying, bright green punctate areas of fluorescence; also recorded: only eosinophil nuclear remnants are seen
